The results in this text go back to patent US6410545B1, “Lipid lowering quinazoline dietary supplement composition” (Parker Hughes Institute, priority 1998, dated 2002).

One experiment relates to apo e−/− mice. As to the kind of experiment: Serum total cholesterol in apolipoprotein E deficient mice. Format: in vivo. The note with it: apo e−/− (C57B1/6) mice, Western diet two weeks, then drug 1 week at 40 mg/kg/day. Here is the method: Three- to four-week old apolipoprotein E deficient (apo E^−/−) mice were the progeny of breeding pairs of apo E knockout (apo EKO) mice obtained from Jackson Labs. (Bar Harbor, Me., USA). Mice were fed either regular rodent chow (5% fat and 0% cholesterol) (Teklad-LM 485, Harlan Teklad, Madison, Wis., USA), the Paigen's cocoa butter diet, or the Western diet (21.22% fat and 0.2% cholesterol) (Harlan Teklad, Madison, Wis., USA) for two weeks prior to treatment.
(§1) Animals were treated with test compounds by intraperitoneal injection daily for 7 days. A range of doses was administered. Control animals received vehicle alone. The effect of quinazoline derivatives on total cholesterol, LDL, HDL, liver enzymes, and glucose was analyzed. The mice tissues were also examined histologically.
(§2) Serum total cholesterol was measured enzymatically using the cholesterol kit from Sigma Chemical Co. (St. Louis, Mo., USA). For liver tissue lipid measurements, lipids were extracted from homogenized hepatic tissues using the method of Bligh and Dyer (Bligh, et al., Can. J. Biochem. Phys. 1959, 37:911-917). One gram of liver tissue was homogenized in 1 ml of distilled water and extracted with 4 ml of chloroform/methanol (1:1, v/v). The chloroform phase containing the lipids was evaporated under a stream of nitrogen, the lipids dissolved in 100 μL of isopropanol, and subjected to cholesterol determination as described above. Triglyceride (TG) contents were determined using the TG kit from Sigma Chemical Co.
On regular rodent chow, the serum total cholesterol level of apo e^−/− mice was 836±57 mg/dL (n=47). After one week therapy with 8 mg/kg/day WHI-P164 (n=12), the mean serum total cholesterol level was reduced to 551±29 mg/dL (p=0.02).
When challenged with a cholesterol-rich diet, these animals developed frank hypercholesterolemia due to delayed clearance of intestinal chylomicrons which shuttle the dietary cholesterol from the intestine to the liver. In the present study, all of the 46 ApoE-deficient mice that were fed Western diet (14) became severely hypercholesterolemic with a mean serum total cholesterol level of 1491±59 mg/dL. One week WHI-P164 therapy reduced the mean serum total cholesterol level of hypercholesterolemic apo e^−/− mice to 1194±84 mg/dL (p=O.006) at a dose level of 8 mg/kg/day (n=19) and to 876±57 mg/dL (p<0.0001) at a dose level of 40 mg/kg/day (n=17) (Table 3).

For experiment [1], the system named is hypercholesterolemic C57B⅙ mice. As to the kind of experiment: Serum total cholesterol in hypercholesterolemic C57B⅙ mice on Paigen's cocoa butter diet. It counts as in vivo. The note with it: apo e+/+ C57B1/6 mice, cocoa butter diet two weeks, then drug 1 week at 1.6 mg/kg/day i.p. Here is the method:
Three- to four-week old C57B⅙ male mice (Taconic, Germantown, N.Y., USA) were kept in micro-isolator cages on a 12-hour day/night cycle and fed the Paigen's cocoa butter diet (15.8% fat, 1.25% cholesterol, and 0.5% sodium cholate) (Harlan Teklad, Madison, Wis., USA) for two weeks prior to initiation of lipid lowering therapy. Paigen's diet is described in Nishina et.al., 1993, J. Lipid Res. 34: 1413-1422.
as §1, §2
A high cholesterol and high fat diet was used to induce hypercholesterolemia in C57B⅙mice, using the methods described by Paigen, et al. (Nishina, et al., 1993, J. Lipid Res. 34:1413-1422) and as described for Example 1.

On to `COc1cc2ncnc(Nc3cc(Br)c(O)c(Br)c3)c2cc1OC` [WHI-P97, 4-(3′,5′-Dibromo-4′-hydroxylphenyl)-amino-6,7-dimethoxyquinazoline], for which the Serum total cholesterol is reported as 1129 ± 46 mg/dL in the experiment with apo e−/− mice and 413 ± 18 mg/dL in experiment [1].
On the same counts, the results for `COc1cc2ncnc(Nc3ccc(C)c(Br)c3)c2cc1OC` [WHI-P111, 4-(3′-Bromo-4′-methylphenyl)-amino-6,7-dimethoxyquinazoline] are 1425 ± 92 mg/dL and 406 ± 11 mg/dL.
As to `COc1cc2ncnc(Nc3ccc(O)cc3)c2cc1OC` [WHI-P131, 4-(4′-Hydroxylphenyl)-amino-6,7-dimethoxyquinazoline], the Serum total cholesterol with apo e−/− mice was 1532 ± 77 mg/dL; in experiment [1] it was 433 ± 20 mg/dL.
`COc1cc2ncnc(Nc3ccccc3O)c2cc1OC` [WHI-P132, 4-(2′-Hydroxylphenyl)-amino-6,7-dimethoxyquinazoline] showed a Serum total cholesterol in the experiment with apo e−/− mice of 1774 ± 61 mg/dL.
The same measure, in the same setting: next, `COc1cc2ncnc(Nc3ccc(O)c(Br)c3)c2cc1OC` [WHI-P154, 4-(3′-Bromo-4′-hydroxylphenyl)-amino-6,7-dimethoxyquinazoline]: 1492 ± 110 mg/dL.
As to `COc1cc2ncnc(Nc3ccc(O)c(Cl)c3)c2cc1OC` [WHI-P197, 4-(3′-Chloro-4′-hydroxylphenyl)-amino-6,7-dimethoxyquinazoline], the Serum total cholesterol with apo e−/− mice came out at 1621 ± 146 mg/dL; in experiment [1], 372 ± 20 mg/dL.
